What was measured:
Assay type in all cases: in vivo
[1] = tested on: pigweed (Amaranthus retroflexus); test: Test C preemergence; settings: for Plant response rating (0 to 100), Pigweed: Rate 250 g/ha, visual evaluation after 12 to 14 days
Summary of the method: (§1)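 Plants held in greenhouse for 12–14 days post-application are scored by eye against controls on a 0–100 control scale. Application timing: preemergence on sown seed, or postemergence on 2–18 cm plants.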

[2] = tested on: Nightshade; test: Test C preemergence
[3] = tested on: yellow nutsedge (Cyperus esculentus); test: Test C preemergence; settings: for Plant response rating (0 to 100), Nutsedge: Rate 250 g/ha, visual evaluation after 12 to 14 days
Summary of the method: as §1

[4] = tested on: soybean (Glycine max); test: Test C preemergence; settings: for Plant response rating (0 to 100), Soybean: Rate 250 g/ha, visual evaluation after 12 to 14 days
Summary of the method: as §1

[5] = tested on: lambsquarters (Chenopodium album); test: Test C preemergence; settings: for Plant response rating (0 to 100), Lambsquarters: Rate 250 g/ha, visual evaluation after 12 to 14 days
Summary of the method: as §1

[6] = tested on: corn (Zea mays); test: Test C preemergence; settings: for Plant response rating (0 to 100), Corn: Rate 250 g/ha, visual evaluation after 12 to 14 days
Summary of the method: as §1

[7] = tested on: kochia (Kochia scoparia); test: Test C preemergence; settings: for Plant response rating (0 to 100), Kochia: Rate 250 g/ha, visual evaluation after 12 to 14 days
Summary of the method: as §1

[8] = tested on: woolly cupgrass (Eriochloa villosa); test: Test C preemergence; settings: for Plant response rating (0 to 100), Cupgrass, Woolly: Rate 250 g/ha, visual evaluation after 12 to 14 days
Summary of the method: as §1

[9] = tested on: johnsongrass (Sorghum halepense); test: Test C preemergence; settings: for Plant response rating (0 to 100), Johnsongrass: Rate 250 g/ha, visual evaluation after 12 to 14 days
Summary of the method: as §1

[10] = tested on: barnyardgrass (Echinochloa crus-galli); test: Test B postemergence; settings: 13 to 15 days
Summary of the method: (§2)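 Visual injury scores, 0 = no effect to 100 = complete control, assigned against controls after 13 to 15 days in the greenhouse. Compounds formulated in non-phytotoxic solvent plus surfactant and applied to soil after planting (pre) or onto foliage of 1- to 4-leaf plants (post).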

[11] = tested on: wild oat (Avena fatua); test: Test B postemergence; settings: 13 to 15 days
Summary of the method: as §2

[12] = tested on: corn (Zea mays); test: Test B postemergence; settings: 13 to 15 days
Summary of the method: as §2

[13] = tested on: wheat (Triticum aestivum); test: Test B postemergence; settings: 13 to 15 days
Summary of the method: as §2

[14] = tested on: Nightshade; test: Test C preemergence; settings: Rate 250 g/ha, visual evaluation after 12 to 14 days
[15] = tested on: Sunflower; test: Test C preemergence; settings: Rate 125 g/ha, scale 0 to 100, 0 no effect, 100 complete control
[16] = tested on: duck salad (Heteranthera limosa); test: Test C flooded paddy test; settings: for Ducksalad plant response rating: Flooded Paddy, scale 0 to 100, 0 no effect, 100 complete control; for Plant response rating, Ducksalad: flooded paddy test, scale 0 to 100 (0 no effect, 100 complete control)
Summary of the method: (§3)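 Visually assessed vs untreated controls 12–14 d post-treatment (greenhouse). Flooded paddy plants were at the 2-leaf stage; scale 0 = no effect, 100 = complete control.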

[17] = tested on: barnyardgrass (Echinochloa crus-galli); test: Test C flooded paddy test; settings: for Barnyardgrass plant response rating: Flooded Paddy, scale 0 to 100, 0 no effect, 100 complete control; for Plant response rating, Barnyardgrass: flooded paddy test, scale 0 to 100 (0 no effect, 100 complete control)
Summary of the method: as §3

[18] = tested on: smallflower flatsedge (Cyperus difformis); test: Test C flooded paddy test; settings: for Flatsedge plant response rating: Flooded Paddy, scale 0 to 100, 0 no effect, 100 complete control; for Plant response rating, Flatsedge: flooded paddy test, scale 0 to 100 (0 no effect, 100 complete control)
Summary of the method: as §3

[19] = tested on: rice (Oryza saliva); test: Test C flooded paddy test; settings: for Rice plant response rating: Flooded Paddy, scale 0 to 100, 0 no effect, 100 complete control; for Plant response rating, Rice: flooded paddy test, scale 0 to 100 (0 no effect, 100 complete control)
Summary of the method: as §3

[20] = Preemergence, Rate 500 g/ha, scale 0 to 100
[21] = preemergence, Rate 125 g/ha, scale 0 to 100, 0 no effect, 100 complete control
[22] = Rate 62 g/ha, scale 0 to 100, 0 no effect, 100 complete control
[23] = Rate 125 g/ha, scale 0 to 100, 0 no effect, 100 complete control
[24] = Rate 125 g/ha, scale 0 (no effect) to 100 (complete control)
[25] = Rate 500 g/ha, scale 0 to 100, 0 is no effect, 100 is complete control

CC(C)(C)c1ccn(C2CCN(c3ccc(Cl)c(Br)c3)C2=O)n1 (stereo not drawn) [Compound 56]
Plant response rating, Pigweed [1, 20]: 100
Plant response rating (0 to 100), Pigweed ([1]; preemergence): 0
Plant response rating, Pigweed [1, 21]: 90
Plant response rating, Nightshade [2, 22]: 0
Plant response rating, Nightshade [2, 23]: 0
Plant response rating, Nightshade ([2]; Rate 500 g/ha, scale 0 to 100): 20
Plant response rating, Nutsedge [3, 20]: 0
Plant response rating, Nutsedge [3, 22]: 0
Plant response rating (0 to 100), Nutsedge ([3]; preemergence): 0
Plant response rating, Nutsedge [3, 21]: 0
Plant response rating, Soybean [4, 20]: 0
Plant response rating (0 to 100), Soybean ([4]; preemergence): 0
Plant response rating, Soybean [4, 21]: 0
Plant response rating, Lambsquarters [5, 20]: 100
Plant response rating, Lambsquarters [5, 22]: 100
Plant response rating (0 to 100), Lambsquarters ([5]; preemergence): 100
Plant response rating, Lambsquarters [5, 21]: 100
Plant response rating, Corn [6, 20]: 0
Plant response rating, Corn [6, 22]: 0
Plant response rating (0 to 100), Corn ([6]; preemergence): 0
Plant response rating, Corn [6, 21]: 0
Plant response rating, Kochia [7, 20]: 100
Plant response rating, Kochia [7, 22]: 50
Plant response rating (0 to 100), Kochia ([7]; preemergence): 100
Plant response rating, Kochia [7, 21]: 70
Plant response rating, Cupgrass, Woolly [8, 20]: 70
Plant response rating, Cupgrass, Woolly [8, 22]: 0
Plant response rating (0 to 100), Cupgrass, Woolly ([8]; preemergence): 0
Plant response rating, Cupgrass, Woolly [8, 21]: 0
Plant response rating, Johnsongrass [9, 20]: 0
Plant response rating, Johnsongrass [9, 22]: 0
Plant response rating (0 to 100), Johnsongrass ([9]; preemergence): 0
Plant response rating, Johnsongrass [9, 21]: 0
Plant response rating, Barnyardgrass [10, 24]: 0
Plant response rating, Barnyardgrass [10, 25]: 0
Plant response rating, Wild Oat [11, 24]: 0
Plant response rating, Wild Oat [11, 25]: 0
Plant response rating, Corn [12, 24]: 0
Plant response rating, Corn [12, 25]: 0
Plant response rating, Wheat [13, 24]: 0
Plant response rating, Wheat [13, 25]: 0
Plant response rating (0 to 100), Nightshade [14]: 0
Plant response rating, Sunflower [15]: 0
Ducksalad plant response rating ([16]; Rate 250 g/ha): 0
Ducksalad plant response rating ([16]; Rate 500 g/ha): 0
Plant response rating, Ducksalad ([16]; Rate 62 g/ha): 0
Plant response rating, Ducksalad ([16]; Rate 125 g/ha): 0
Barnyardgrass plant response rating ([17]; Rate 250 g/ha): 30
Barnyardgrass plant response rating ([17]; Rate 500 g/ha): 30
Plant response rating, Barnyardgrass ([17]; Rate 62 g/ha): 0
Plant response rating, Barnyardgrass ([17]; Rate 125 g/ha): 30
Flatsedge plant response rating ([18]; Rate 250 g/ha): 90
Flatsedge plant response rating ([18]; Rate 500 g/ha): 90
Plant response rating, Flatsedge ([18]; Rate 62 g/ha): 80
Plant response rating, Flatsedge ([18]; Rate 125 g/ha): 80
Rice plant response rating ([19]; Rate 250 g/ha): 0
Rice plant response rating ([19]; Rate 500 g/ha): 0
Plant response rating, Rice ([19]; Rate 62 g/ha): 0
Plant response rating, Rice ([19]; Rate 125 g/ha): 0

CCC(C)c1ccn(C2SCN(c3cccc(OC(F)(F)F)c3)C2=O)n1 (stereo not drawn) [Compound 32]
Plant response rating, Pigweed [1, 20]: 80
Plant response rating, Pigweed [1, 22]: 70
Plant response rating (0 to 100), Pigweed ([1]; preemergence): 70
Plant response rating, Pigweed [1, 21]: 20
Plant response rating, Nightshade [2, 22]: 50
Plant response rating, Nightshade [2, 23]: 50
Plant response rating, Nightshade ([2]; Rate 500 g/ha, scale 0 to 100): 100
Plant response rating, Nutsedge [3, 20]: 60
Plant response rating (0 to 100), Nutsedge ([3]; preemergence): 50
Plant response rating, Nutsedge [3, 21]: 50
Plant response rating, Soybean [4, 20]: 60
Plant response rating, Soybean [4, 22]: 50
Plant response rating (0 to 100), Soybean ([4]; preemergence): 60
Plant response rating, Soybean [4, 21]: 50
Plant response rating, Lambsquarters [5, 20]: 100
Plant response rating, Lambsquarters [5, 22]: 100
Plant response rating (0 to 100), Lambsquarters ([5]; preemergence): 100
Plant response rating, Lambsquarters [5, 21]: 100
Plant response rating, Corn [6, 20]: 60
Plant response rating, Corn [6, 22]: 40
Plant response rating (0 to 100), Corn ([6]; preemergence): 50
Plant response rating, Corn [6, 21]: 50
Plant response rating, Cupgrass, Woolly [8, 20]: 90
Plant response rating, Cupgrass, Woolly [8, 22]: 60
Plant response rating (0 to 100), Cupgrass, Woolly ([8]; preemergence): 90
Plant response rating, Cupgrass, Woolly [8, 21]: 70
Plant response rating, Johnsongrass [9, 20]: 90
Plant response rating, Johnsongrass [9, 22]: 30
Plant response rating (0 to 100), Johnsongrass ([9]; preemergence): 90
Plant response rating, Johnsongrass [9, 21]: 40
Plant response rating, Barnyardgrass [10, 24]: 80
Plant response rating, Barnyardgrass [10, 25]: 90
Plant response rating, Wild Oat [11, 24]: 0
Plant response rating, Wild Oat [11, 25]: 0
Plant response rating, Corn [12, 24]: 0
Plant response rating, Corn [12, 25]: 0
Plant response rating, Wheat [13, 24]: 0
Plant response rating, Wheat [13, 25]: 0
Plant response rating (0 to 100), Nightshade [14]: 90
Plant response rating, Sunflower [15]: 0
Ducksalad plant response rating ([16]; Rate 250 g/ha): 100
Ducksalad plant response rating ([16]; Rate 500 g/ha): 80
Plant response rating, Ducksalad ([16]; Rate 62 g/ha): 50
Plant response rating, Ducksalad ([16]; Rate 125 g/ha): 80
Barnyardgrass plant response rating ([17]; Rate 250 g/ha): 100
Barnyardgrass plant response rating ([17]; Rate 500 g/ha): 100
Plant response rating, Barnyardgrass ([17]; Rate 62 g/ha): 20
Plant response rating, Barnyardgrass ([17]; Rate 125 g/ha): 100
Flatsedge plant response rating ([18]; Rate 250 g/ha): 100
Flatsedge plant response rating ([18]; Rate 500 g/ha): 100
Plant response rating, Flatsedge ([18]; Rate 62 g/ha): 100
Plant response rating, Flatsedge ([18]; Rate 125 g/ha): 100
Rice plant response rating ([19]; Rate 250 g/ha): 100
Rice plant response rating ([19]; Rate 500 g/ha): 100
Plant response rating, Rice ([19]; Rate 62 g/ha): 0
Plant response rating, Rice ([19]; Rate 125 g/ha): 30

CC(C)(C)c1ccn(C2CCN(c3cccc(Br)c3)C2=O)n1 (stereo not drawn) [Compound 33]
Plant response rating, Pigweed [1, 20]: 100
Plant response rating, Pigweed [1, 22]: 0
Plant response rating (0 to 100), Pigweed ([1]; preemergence): 60
Plant response rating, Pigweed [1, 21]: 0
Plant response rating, Nightshade [2, 22]: 0
Plant response rating, Nightshade ([2]; Rate 500 g/ha, scale 0 to 100): 100
Plant response rating, Nutsedge [3, 20]: 0
Plant response rating, Nutsedge [3, 22]: 0
Plant response rating (0 to 100), Nutsedge ([3]; preemergence): 0
Plant response rating, Nutsedge [3, 21]: 0
Plant response rating, Soybean [4, 20]: 0
Plant response rating, Soybean [4, 22]: 0
Plant response rating (0 to 100), Soybean ([4]; preemergence): 0
Plant response rating, Soybean [4, 21]: 0
Plant response rating, Lambsquarters [5, 20]: 100
Plant response rating, Lambsquarters [5, 22]: 100
Plant response rating (0 to 100), Lambsquarters ([5]; preemergence): 100
Plant response rating, Lambsquarters [5, 21]: 100
Plant response rating, Corn [6, 20]: 40
Plant response rating, Corn [6, 22]: 0
Plant response rating (0 to 100), Corn ([6]; preemergence): 0
Plant response rating, Corn [6, 21]: 0
Plant response rating, Kochia [7, 20]: 100
Plant response rating, Kochia [7, 22]: 100
Plant response rating (0 to 100), Kochia ([7]; preemergence): 100
Plant response rating, Kochia [7, 21]: 100
Plant response rating, Cupgrass, Woolly [8, 20]: 100
Plant response rating, Cupgrass, Woolly [8, 22]: 20
Plant response rating (0 to 100), Cupgrass, Woolly ([8]; preemergence): 100
Plant response rating, Cupgrass, Woolly [8, 21]: 90
Plant response rating, Johnsongrass [9, 20]: 100
Plant response rating, Johnsongrass [9, 22]: 0
Plant response rating (0 to 100), Johnsongrass ([9]; preemergence): 0
Plant response rating, Johnsongrass [9, 21]: 0
Plant response rating, Barnyardgrass [10, 24]: 0
Plant response rating, Barnyardgrass [10, 25]: 0
Plant response rating, Wild Oat [11, 24]: 0
Plant response rating, Wild Oat [11, 25]: 0
Plant response rating, Corn [12, 24]: 0
Plant response rating, Corn [12, 25]: 0
Plant response rating, Wheat [13, 24]: 0
Plant response rating, Wheat [13, 25]: 0
Plant response rating (0 to 100), Nightshade [14]: 0
Plant response rating, Sunflower [15]: 0

— patent US7138361B2, “Herbicidal heterocycles” (E. I. du Pont de Nemours and Company, priority 2000, dated 2006)
